Source: patent publication US20220175777A1, “Inhibitors of Multidrug Resistance Transporter P-Glycoprotein” (Southern Methodist University, priority 2014, published 2022)

Assays:
[1] = target: T1, Cysteineless Mouse MDR3 P-glycoprotein (Mus musculus, UniProt P21447, C1070A/C1121A/C1223A/C133A/C427A/C638A/C669A/C713A/C952A); experiment: ATP hydrolysis by purified P-glycoprotein, basal and verapamil-stimulated; type: biochemical; conditions: in the presence of verapamil
T1 construct: made in house; host or cells: Pichia pastoris
From the text: The efficacy of molecules identified using in silico methods to function as potential inhibitors of P-glycoprotein was initially tested with regard to their capability to inhibit ATP hydrolysis by purified P-glycoprotein. For this purpose, a well-established activity assay for ATP hydrolyzing enzymes that uses the oxidation of NADH to NAD+ through coupling the reactions of pyruvate kinase and lactate dehydrogenase to the hydrolysis of ATP was adapted to medium throughput conditions on 96 well plates. […] In this set-up, the effects of potential small molecule inhibitors on the ATP hydrolysis activity of P-glycoprotein were tested in duplicate or triplicate and were repeated at least two times using different enzyme preparations.
The P-glycoprotein used in these assays was a close relative of the human P-glycoprotein that is found in mice. A mutant version of the mouse P-glycoprotein where all intrinsic cysteine amino acids had been replaced by alanine residues was recombinantly expressed in the yeast Pichia pastoris and used for these initial tests. […] Prior to testing the ATP-hydrolysis activity, P-glycoprotein was incubated with phosphatidyl choline for stabilization of the enzyme during the assay.
Different concentrations of the to-be-tested small molecules were added and pre-incubated at 37° C. The ATP hydrolysis reaction was then started by adding equal volume of double concentrated ATPase cocktail. The final ATP concentration in the reaction was 2 mM. The reaction was allowed to proceed for 20 minutes, the rate of ATP hydrolysis was calculated using the molar extinction coefficient of NADH, and the one-to-one relationship of ATP hydrolyzed and NADH oxidized.
Evaluation of mode of inhibition of P-glycoprotein by Group 1 and Group 2 variants of compound 29. To assess the mode of inhibition of P-gp by the novel variants of P-gp inhibitor 29, ATP hydrolysis by P-gp was evaluated in the presence or absence of the variants. […] Murine P-gp (MDR3) expressed in Pichia pastoris that had all naturally occurring cysteines replaced with alanine, was used^45, 46. It is widely assumed that the ATP hydrolytic rate of P-gp is stimulated in the presence of transport substrates when compared to ATP hydrolysis in the absence of transport substrates. Assays comparing these rates can therefore be useful not only in identifying inhibitors of P-gp catalyzed ATP hydrolysis, but also to potentially infer whether a compound might be a transport substrate if basal ATPase rates are stimulated by the addition of a compound.

DU145TXR [2] = experiment: Dose dependent sensitization of MDR cell line to paclitaxel (MTT); type: cell-based, human
Method: FIGS. 6A to 6C show the dose dependent sensitization of MDR prostate cancer cell line DU145TxR. […] For reference, the DU145TxR (closed circle) and DU145 (open circle) incubated with paclitaxel only are also included. Values are mean±SEM from at least 2 separate experiments performed in triplicate wells. The data were normalized to the intrinsic toxicities as determined in studies from FIGS. 5A to 5C of each of the compounds for each of the corresponding concentrations.
Dose Dependent Sensitization of MDR Prostate Cancer Cell Line: To determine the degree to which the MDR prostate cancer cell line DU145TxR could be sensitized to paclitaxel the inventors determined cell survival at increasing concentrations of paclitaxel in the presence of three concentrations of P-gp inhibitors. FIGS. 6A, 6B and 6C show the survival of DU145TxR at increasing concentration of paclitaxel in the presence of 5 μM, 10 μM and 25 μM of the experimental compounds, respectively. The open circles represent the parental DU145 cell line in the presence of paclitaxel without addition of any inhibitor compound. The closed circles represent the survival of the multidrug resistant DU145TxR in the presence of paclitaxel alone. […] At that concentration over 10-fold increase in paclitaxel sensitivity in DU145TxR is observed compared to DU145TxR without P-gp inhibitors. Doubling the concentration of the compounds to 10 μM approximately doubled the DU145TxR sensitivity to paclitaxel.

DU145TXR [3] = experiment: Potentiation of 500 nM paclitaxel cytotoxicity (MTT); type: cell-based, human; conditions: for Effect on paclitaxel sensitivity: 50 nM-25 μM inhibitor with 500 nM paclitaxel
Method: FIGS. 4A and 4B show the in silico identified P-gp inhibitors potentiate the cytotoxic effects of paclitaxel in the MDR human prostate cancer cell line DU145TxR. […] Values represent the mean±SEM of at least two separate experiments performed in triplicate.
A range of experimental inhibitor concentrations was added in the presence of 500 nM paclitaxel and the cell viability was assessed using the MTT assay.
In order to compare the efficacy of inhibitors, the potentiation concentration of inhibitor resulting in 50% reduction in cell viability, PC50, in the presence of 500 nM paclitaxel was calculated from the data in FIG. 4A.

DU145-TxR = experiment: Re-sensitization to Paclitaxel or Doxorubicin at 25 μM compound (MTT); type: cell-based, human; conditions: 48 hours
Method: FIGS. 3A-3B are plots that show an example of the re-sensitization of a multidrug resistant prostate cancer cell line to two different chemotherapeutics using the prostate cancer derived cell line, DU145 and the multidrug-resistant variant, DU145-TxR. […] Cell viability was measured by the MTT (3-(4,5-dimethylthiazol-2-yl)-2,5-diphenyl tetrazolium bromide assay conducted as described previously. After 48 hours of treatment with Paclitaxel or Doxorubicin alone or in the presence of 25 μM compound 29, 34, or 45 media was removed and cells were washed twice with phosphate buffered saline (PBS) and MTT assay was conducted 24 hours later. Data expressed as mean±SEM.

DU145 = experiment: Intrinsic toxicity, MTT survival; type: cell-based; conditions: Homo sapiens, DU-145, 48 hours, ± standard error
Method: (§1) Percent survival determined by MTT assay calculated relative to cells treated with equal volume DMSO vehicle and represent the mean±SEM from 2-4 separate studies, each study performed in triplicate wells.
(§2) The intrinsic in vitro toxicities of identified compounds were evaluated to determine their potential therapeutic window. This was assessed in a noncancerous cell line (HFL1) and the human prostate cancer cell lines DU145 and the MDR sub-line DU145TxR.

A2780 = experiment: Hyper-sensitization of ovarian cancer cells to doxorubicin; type: cell-based; conditions: not chemotherapy resistant A2780
From the text: Hyper-sensitization of cancers to chemotherapeutics. […] The sensitivity of normal, not chemotherapy resistant A2780 ovarian cancer cell lines to doxorubicin was increased by several orders of magnitude in these assays.

[4] = target: T1, Cysteineless Mouse MDR3 P-glycoprotein; conditions: ESR data of Brewer et al. (2014); cited from earlier work
[5] = target: T1, Cysteineless Mouse MDR3 P-glycoprotein; experiment: SL-ATP binding to P-gp by ESR spectroscopy; conditions: 50 microM inhibitor compound
From the text: Determination of the possible mode of ATP hydrolysis inhibition by the identified P-glycoprotein inhibitors. The mode of hydrolysis of ATP by P-glycoprotein was investigated by measuring the maximal binding stoichiometry and binding affinity of an analog of ATP, SL-ATP, and by Electron Spin Resonance (ESR) spectroscopy, similar to in both the presence and absence of the identified inhibitors.
The high-field signal of the freely mobile, unbound SL-ATP is compared and is used to calculate the amount of ATP-analog bound to P-glycoprotein. Binding of SL-ATP in the absence of any P-glycoprotein inhibitor saturated at about 2 mol of SL-nucleotide bounds per mol of P-glycoprotein.
FIGS. 2A-2D are plots showing the effects of P-glycoprotein ATP hydrolysis inhibitors on nucleotide binding. Between 30 and 50 microM Pgp were incubated with 50 microM inhibitor compound. Increasing amounts of SL-ATP were added. The ESR signal of the free SL-ATP in the presence of P-glycoprotein and inhibitor was compared to that in the absence of P-glycoprotein. The graphs represent at least 3 individual studies each using 3 to 5 different P-glycoprotein preparations.

HFL1 = experiment: Intrinsic toxicity, MTT survival; type: cell-based; conditions: Homo sapiens, 48 hours, ± standard error
Method: as §1
as §2, with “DU145TxR. The potential toxicity of the compounds were assessed at concentrations that centered around 25 μM.” for “DU145TxR.”

DU145TXR [6] = experiment: Intrinsic toxicity, MTT survival; type: cell-based, human; conditions: Homo sapiens; intrinsic toxicity, 48 hours, MTT; ± standard error
Method: as §1, §2

T1 sequence (P21447 whole entry C133A/C427A/C638A/C669A/C713A/C952A/C1070A/C1121A/C1223A): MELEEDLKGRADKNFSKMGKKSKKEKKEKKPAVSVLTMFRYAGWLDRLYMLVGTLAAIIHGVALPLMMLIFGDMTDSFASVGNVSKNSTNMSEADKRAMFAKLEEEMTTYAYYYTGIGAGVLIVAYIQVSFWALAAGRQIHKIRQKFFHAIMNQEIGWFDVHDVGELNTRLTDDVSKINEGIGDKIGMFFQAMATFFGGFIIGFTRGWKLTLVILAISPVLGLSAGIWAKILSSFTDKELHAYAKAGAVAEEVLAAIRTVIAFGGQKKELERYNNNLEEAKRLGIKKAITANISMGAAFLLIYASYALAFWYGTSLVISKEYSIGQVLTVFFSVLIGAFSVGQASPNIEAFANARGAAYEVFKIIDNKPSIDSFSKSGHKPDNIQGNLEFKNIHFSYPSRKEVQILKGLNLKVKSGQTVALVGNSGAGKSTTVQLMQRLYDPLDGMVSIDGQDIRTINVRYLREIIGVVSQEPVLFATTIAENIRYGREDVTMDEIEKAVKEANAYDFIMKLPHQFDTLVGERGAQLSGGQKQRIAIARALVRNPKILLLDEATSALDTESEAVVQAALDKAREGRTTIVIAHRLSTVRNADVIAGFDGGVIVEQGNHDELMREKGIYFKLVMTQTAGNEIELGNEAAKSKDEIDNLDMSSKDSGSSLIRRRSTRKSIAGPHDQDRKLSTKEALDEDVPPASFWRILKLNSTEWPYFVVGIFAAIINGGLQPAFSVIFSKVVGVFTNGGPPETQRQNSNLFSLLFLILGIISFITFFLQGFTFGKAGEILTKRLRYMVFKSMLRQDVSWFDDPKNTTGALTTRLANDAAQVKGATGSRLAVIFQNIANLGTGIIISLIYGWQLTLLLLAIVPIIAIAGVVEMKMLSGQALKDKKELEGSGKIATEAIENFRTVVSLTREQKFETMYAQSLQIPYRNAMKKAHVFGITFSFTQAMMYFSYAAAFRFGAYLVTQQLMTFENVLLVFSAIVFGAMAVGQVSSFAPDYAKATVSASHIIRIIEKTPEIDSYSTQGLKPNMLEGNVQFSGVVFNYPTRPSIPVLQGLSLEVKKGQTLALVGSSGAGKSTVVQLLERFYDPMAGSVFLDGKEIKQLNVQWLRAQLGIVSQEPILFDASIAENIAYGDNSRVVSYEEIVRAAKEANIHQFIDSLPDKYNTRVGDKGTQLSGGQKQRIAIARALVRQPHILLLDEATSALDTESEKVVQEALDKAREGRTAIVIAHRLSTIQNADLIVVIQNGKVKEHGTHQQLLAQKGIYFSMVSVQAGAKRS

| SMILES | Effect on stimulated ATPase [1] | Sensitization to paclitaxel (DU145TXR [2]; 25 μM compound) [fold] | Effect on paclitaxel sensitivity (DU145TXR [3]) | EC50 (DU145TXR [3]; in the presence of 500 nM paclitaxel, 48 hours, read-out: PC50, potentiation concentration of inhibitor resulting in 50% reduction in cell viability) [µM] | Chemotherapeutic sensitivity of MDR cell line (Paclitaxel or Doxorubicin) (DU145-TxR) | IC50 (DU145) [µM] | Sensitivity to doxorubicin (A2780) | Effect on SL-ANP binding [4] | Effect on SL-ATP binding [5] | IC50 (HFL1) [µM] | IC50 (DU145TXR [6]) [µM] | Effect on cell viability with paclitaxel (DU145TXR [2]; 5 μM and 10 μM compound) |
| --- | --- | --- | --- | --- | --- | --- | --- | --- | --- | --- | --- | --- |
| CCC(C(=O)N1CCN(c2ccc(OC)cc2)CC1)n1nc(C)c2sc3ccccc3c2c1=O (stereo not shown) [SMU-34, 2-[1-[4-(4-methoxyphenyl)piperazin-1-yl]-1-oxobutan-2-yl]-4-methyl-[1]benzothiolo[2,3-d]pyridazin-1-one] | significantly inhibit | 1200 | strongly affected the sensitivity | 0.57 ± 0.003 | restores chemotherapeutic sensitivity | 47.2 ± 0.02 | hyper-sensitized | reduce the number of binding sites | decreased the SL-ATP binding affinities | 85.2 ± 0.04 | 200.3 ± 0.17 | – |
| COc1ccc(CCN(C)CCCC(C#N)(c2ccc(OC)c(OC)c2)C(C)C)cc1OC (stereo not shown) [Verapamil, verapamil, reference compound] | – | – | – | – | – | 74.5 ± 0.04 | – | – | – | – | 147.5 ± 0.1 | – |
| COC(=O)c1ccc(C(c2c(O)oc3ccccc3c2=O)c2c(O)oc3ccccc3c2=O)cc1 [SMU-19, methyl 4-[bis(2-hydroxy-4-oxochromen-3-yl)methyl]benzoate] | – | – | no effect | – | – | – | – | reduce the number of binding sites | – | – | – | no effect on cell viability |
